Key:
[1] = mn = molality of the nth substance listed, in mol/kg; conditions: 101 kPa, Liquid, m2 = 0; for viscosity: Capillary tube (Ostwald / Ubbelohde) method
[2] = 101 kPa, Liquid; for viscosity: Capillary tube (Ostwald / Ubbelohde) method

CC#N [acetonitrile] + O=C(Oc1ccccc1)c1ccccc1O
[1]
Conditions	mass density [kg/m3]	viscosity [mPa·s]
293.15 K	782.499	0.3081
298.15 K	777.099	0.2857
303.15 K	771.674	0.2642
308.15 K	766.217	0.2444
310.15 K	763.991	0.2374
313.15 K	760.702	0.2267

CC#N [acetonitrile]
[2]
Conditions	mass density [kg/m3]	viscosity [mPa·s]
293.15 K	782.499	0.3081
298.15 K	777.099	0.2857
303.15 K	771.674	0.2642
308.15 K	766.217	0.2444
310.15 K	763.991	0.2374
313.15 K	760.702	0.2267

Reference: the NIST ThermoML archive (doi:10.1021/je8003595)
